Measurements reported in ChEMBL document CHEMBL5604063, “ASAP - DENV-2 NS2B-NS3 protease fluorescence dose response” (2024).
Several values for one entry are separate records, joined by “and”; a condition that tells them apart may be missing. Equal values may be shown once.

Assays:
Genome polyprotein [1] = biological target: T1, Genome polyprotein (dengue virus type 2, UniProt P29990); assay type: functional, Thailand/16681/1984
Genome polyprotein [2] = biological target: T1, Genome polyprotein; assay type: functional, Thailand/16681/1984; remark: listed apart in the source

T1 sequence (P29990 1346-1475 limits assumed): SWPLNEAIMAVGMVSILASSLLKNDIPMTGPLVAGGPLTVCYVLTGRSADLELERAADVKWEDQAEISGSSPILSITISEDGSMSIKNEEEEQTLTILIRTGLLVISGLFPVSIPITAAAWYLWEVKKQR
T1 sequence (P29990 1476-2093 limits assumed): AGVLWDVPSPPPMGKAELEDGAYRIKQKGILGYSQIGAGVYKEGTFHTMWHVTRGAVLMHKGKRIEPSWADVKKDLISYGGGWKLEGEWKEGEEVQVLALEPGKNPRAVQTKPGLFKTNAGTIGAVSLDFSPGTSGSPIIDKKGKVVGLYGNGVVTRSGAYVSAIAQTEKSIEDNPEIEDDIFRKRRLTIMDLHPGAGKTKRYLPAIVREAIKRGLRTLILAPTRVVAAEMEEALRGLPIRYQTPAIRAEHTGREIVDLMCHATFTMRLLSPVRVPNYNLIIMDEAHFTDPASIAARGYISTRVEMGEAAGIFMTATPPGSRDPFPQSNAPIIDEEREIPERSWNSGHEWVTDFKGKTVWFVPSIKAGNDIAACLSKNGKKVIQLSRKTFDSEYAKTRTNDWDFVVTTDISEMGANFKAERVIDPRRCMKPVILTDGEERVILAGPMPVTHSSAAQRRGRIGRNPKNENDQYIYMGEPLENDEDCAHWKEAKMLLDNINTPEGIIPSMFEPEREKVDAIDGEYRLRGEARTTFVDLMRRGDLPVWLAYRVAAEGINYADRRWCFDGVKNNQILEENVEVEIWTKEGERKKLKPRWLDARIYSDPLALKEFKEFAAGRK

| Compound | IC50 (Genome polyprotein [1]) | IC50 (Genome polyprotein [2]) |
| --- | --- | --- |
| O=C1Cc2c(cccc2C(=O)Nc2cc3c(cn2)OCCO3)N1 | > 99.5 µM | > 100 µM |
| CN1CCC([C@H]2CCCN(C(=O)Nc3ccc4c(c3)CNC4)C2)CC1 | > 99.5 µM | > 100 µM |
| Cn1ncc(C(=O)Nc2cc(CCCN)ccn2)c1O | > 99.5 µM | > 100 µM |
| O=C(Nc1ccc2c(c1)CNC2)c1cc(Cl)ccc1-n1cnnn1 | > 99.5 µM | > 100 µM |
| CC(C)[C@H](NC(=O)c1cc(Cl)cc(NC(=O)OCc2ccccc2)c1)C(=O)O | > 99.5 µM | > 100 µM |
| NCc1cccc(NC(=O)c2c(F)c(Cl)cc(NC(=O)OCc3ccccc3)c2F)c1 | > 99.5 µM | > 100 µM |
| O=S(=O)(Nc1cccc(-c2nnn[nH]2)c1)c1cc(Cl)cc(C(F)(F)F)c1 | > 99.5 µM | > 100 µM |
| Cc1c(C(=O)Nc2cc(C3CCOCC3)ccc2F)cc(C2CC2)n1C | > 99.5 µM | > 100 µM |
| NCc1cccc(NC(=O)c2cncc(Cl)c2)c1 | > 99.5 µM | > 100 µM |
| Cc1c(C(=O)Nc2cc(C(=O)N3CCCNC(=O)C3)ccn2)cc(C2CC2)n1C | > 99.5 µM | > 100 µM |
| CCCc1sc(C(=O)Nc2cccc(-c3nnn[nH]3)c2)cc1CC | 45.8 µM | 19 µM and 20.6 µM |
| Clc1cc([C@H](C#CC2CC2)Nc2ccc3c(c2)CNC3)c2cn[nH]c2c1 | > 99.5 µM | > 100 µM |
| O=C(Nc1ccc2c(c1)CNC2)c1cccc2nc(O)ccc12 | > 99.5 µM | 47.3 µM and 4.98 µM |
| COC(=O)c1cc(Cl)cc(S(=O)(=O)Nc2cccc(-c3nnn[nH]3)c2)c1F | > 99.5 µM | > 100 µM |
| C=CC[C@H](Nc1cccc(CN)n1)c1cc(Cl)cc(NC(=O)OCc2ccccc2)c1 | > 99.5 µM | > 100 µM |
| O=C(Nc1ccc2c(c1)CNC2)c1ccc(OCC(F)(F)F)nc1 | > 99.5 µM | > 100 µM |
| CSc1cc(F)c(C(=O)Nc2cccc(CN)c2)cc1NC(=O)OCc1ccccc1 | 84.2 µM | > 100 µM |
| O=C(Nc1ccc2c(c1)COC2)c1cc(Cl)cc2[nH]ncc12 | > 99.5 µM | > 100 µM |
| CS(=O)(=O)Nc1cc(Cl)cc(C(=O)Nc2cccc(CN)c2)c1 | > 99.5 µM | > 100 µM |
| NCc1ccc2nc(-c3cc(Cl)cc(NC(=O)OCc4ccccc4)c3)c(CCCO)cc2c1 | 89.3 µM | > 100 µM |
| O=C1Cc2c(C(=O)Nc3ccc4c(c3)CNC4)ccnc2N1 | > 99.5 µM | > 100 µM |

| Compound | IC50 (Genome polyprotein [1]) | IC50 (Genome polyprotein [2]) |
| --- | --- | --- |
| O=C(Cc1ccc2ncsc2c1)Nc1ccc2c(c1)CNC2 | > 99.5 µM | > 100 µM |
| C=CC[C@H]1c2ccc(NC(=O)c3cc(Br)cc4[nH]ccc34)cc2CN1C(=O)OC(C)(C)C | > 99.5 µM | > 100 µM |
| N#C[C@H](Nc1cccn(CC(=O)O)c1=O)c1cc(Cl)cc(C2CC2)c1 | > 99.5 µM | > 100 µM |
| O=C(Nc1cc(Cl)cc(C(=O)Nc2ccccc2[C@@H]2C[C@H]2C(=O)O)c1)OCc1ccccc1 | > 99.5 µM | > 100 µM |
| CCOc1cccc(-c2ccc(S(=O)(=O)Nc3cc(F)c(Cl)cc3C(=O)O)cc2)c1 | 5.09 µM | 7.19 µM |
| COCCCC(=O)N1CCC([C@H](NC(=O)OCc2ccccc2)C(=O)Nc2cccc(CN)c2)CC1 | > 99.5 µM | > 100 µM |
| Cc1c(C(=O)Nc2cc(C(=O)N3CC(CO)C3)ccn2)cc(C2CC2)n1C | > 99.5 µM | > 100 µM |
| O=C(Nc1cc(Cl)cc(C(=O)Nc2ccc3c(c2)CNC3)c1)OCc1ccccc1 | > 99.5 µM | > 100 µM |
| COC1(C(=O)N[C@H](CC(=O)Nc2cccc(CN)c2)c2ccc(OCc3ccccc3)c(Br)c2)CC1 | > 99.5 µM | > 100 µM |
| O=C(Nc1cc([C@H]2CCOC2)ccn1)c1cc(Cl)cc2[nH]ncc12 | > 99.5 µM | > 100 µM |
| O=C(Nc1ccc2c(c1)CNC2)c1cc(F)cc(-c2ccnn2CC2CC2)c1 | > 99.5 µM | > 100 µM |
| Cc1c(C(=O)Nc2ccc3c(c2)C(=O)NC3)cc(C2CC2)n1C | > 99.5 µM | > 100 µM |
| CS(=O)(=O)c1cc2c(cc1NC(=O)c1cc(F)cc3[nH]ncc13)CNC2 | > 99.5 µM | > 100 µM |
| Cc1cc(C(=O)Nc2cccc(CN)c2)n2nc(C(F)(F)F)cc2n1 | 86.7 µM | > 100 µM |
| N#C[C@H](Nc1cccc(-c2nn[nH]n2)c1)c1cc(Cl)cc(NC(=O)OCc2ccccc2)c1 | 10.5 µM and 10.4 µM and 13.7 µM and 9.79 µM | 8.74 µM and 6.62 µM and 11.4 µM and 8.37 µM |
| Cn1ncc2c(C(=O)Nc3ccc4c(c3)CNC4)cc(C3CC3)nc21 | > 99.5 µM | > 100 µM |
| O=C(Nc1ccc2c(c1)CNC2)c1cc(F)cc(-c2cn[nH]c2)c1 | > 99.5 µM | 74.7 µM |
| NCc1cccc(NC(=O)[C@@H]2CCCCN2)c1 | > 99.5 µM | > 100 µM |
| Cc1c(C(=O)Nc2cc(CCCN)ccn2)cc(C2CCC2)n1C | > 99.5 µM | > 100 µM |
| O=C(Nc1cc(Cl)cc([C@H](C#CCO)Nc2cccc(-c3nn[nH]n3)c2)c1)OCc1ccccc1 | 13.6 µM and 12.9 µM | 7.98 µM and 7.07 µM |
| Cc1c(C(=O)Nc2cc(-c3cnn(C)c3)ccn2)cc(C2CC2)n1C | > 99.5 µM | > 100 µM |

| Compound | IC50 (Genome polyprotein [1]) | IC50 (Genome polyprotein [2]) |
| --- | --- | --- |
| NCc1cccc(NC(=O)c2nc(=O)cc(NC(=O)OCc3ccccc3)[nH]2)c1 | > 99.5 µM | > 100 µM |
| C=CC[C@H]1NCc2cc(NCc3cc(Cl)cc4[nH]ncc34)ccc21 | > 99.5 µM | > 100 µM |
| O=C1CCN(c2cc(Cl)cc(C(=O)Nc3ccc4c(c3)CNC4)c2)C(=O)N1 | > 99.5 µM | > 100 µM |
| Clc1cccc([C@H](C#Cc2ccccc2)Nc2cccc(-c3nn[nH]n3)c2)c1 | 7.71 µM | 6.31 µM and 4.12 µM |
| NCc1nc2cc(Cl)ccc2n1Cc1ccc(-c2nn[nH]n2)cc1 | > 99.5 µM | > 100 µM |
| Cc1cnnc(C(=O)Nc2cccc(CN)c2)c1 | > 99.5 µM | > 100 µM |
| NCc1cccc(NC(=O)c2cc(N)cc(Cl)c2)c1 | > 99.5 µM | > 100 µM |
| CNC(=O)c1cc(Br)cc([C@H](Nc2ccc3c(c2)CNC3)C(=O)NCC(F)F)c1 | > 99.5 µM | > 100 µM |
| Cc1ccc(NS(=O)(=O)c2ccc(Oc3ccccc3Cl)cc2)cc1CN | > 99.5 µM | > 100 µM |
| NCc1cccc(NC(=O)C2CCNCC2)c1 | > 99.5 µM | > 100 µM |
| Cc1cc(-c2ccc([C@@H](NC(=O)OCc3ccccc3)C(=O)Nc3cccc(CN)c3)cc2)cs1 | 4.01 µM | 30.5 µM and 16.5 µM and 28.3 µM and 18.6 µM and 11.2 µM and 15.5 µM |
| Cn1nnc(S(=O)(=O)N2CCC([C@H](NC(=O)OCc3ccccc3)C(=O)Nc3cccc(CN)c3)CC2)n1 | > 99.5 µM | > 100 µM |
| Cc1[nH]c2c(C(=O)Nc3ccc4c(c3)CNC4)cccc2c1C | > 99.5 µM | > 100 µM |
| Cc1c(C(=O)Nc2cc(C(=O)N3CC[C@H]3CO)ccn2)cc(C2CC2)n1C | > 99.5 µM | > 100 µM |
| C[C@H]1CNC[C@@H]1c1ccc(NC(=O)c2cc(Cl)cc(NC(=O)OCc3ccccc3)c2)cc1 | 22.4 µM | 96.6 µM |
| NCc1cccc(NC(=O)c2cc(C3CC3)nn2-c2ccccc2)c1 | > 99.5 µM | > 100 µM |
| O=C(Nc1cc(Cl)cc(C(=O)Nc2cccc([C@H]3CCCCN3)c2)c1)OCc1ccccc1 | > 99.5 µM | > 100 µM |
| NCc1cccc(NC(=O)c2cc3c(F)cc(F)c(F)c3[nH]2)c1 | > 99.5 µM | > 100 µM |
| NCCc1ccc(NC(=O)c2cc(Cl)cc3[nH]ncc23)cc1 | > 99.5 µM | > 100 µM |
| CNC(=O)[C@H](Nc1cccc(N)n1)c1cc(Cl)cc(CN)c1 | > 99.5 µM | > 100 µM |
| Cc1nc2cc(Cl)ccc2cc1C(=O)Nc1ccc2c(c1)CNC2 | > 99.5 µM | > 100 µM |

| Compound | IC50 (Genome polyprotein [1]) | IC50 (Genome polyprotein [2]) |
| --- | --- | --- |
| CN1CCC[C@H]1COc1ccc([C@@H](NC(=O)OCc2ccccc2)C(=O)Nc2cccc(CN)c2)cc1 | > 99.5 µM | > 100 µM |
| CCCn1cc(-c2cc(Cl)cc(NC(=O)OCc3ccccc3)c2)c(C(=O)O)n1 | > 99.5 µM | > 100 µM |
| O=C(Nc1ccc2c(c1)CNC2)c1ncnc2sccc12 | > 99.5 µM | > 100 µM |
| CC(C)(C)OC(=O)NCc1cc(Cl)cc(C(=O)O)c1 | > 99.5 µM | > 100 µM |
| NCc1cccc(NC(=O)c2cc(NC(=O)OCc3ccccc3)cc(C(F)(F)F)c2F)c1 | > 99.5 µM | > 100 µM |
| Cc1c(C(=O)Nc2cc(SC3COC3)ccn2)cc(C2CC2)n1C | > 99.5 µM | > 100 µM |
| NCCc1nsc(NC(=O)c2cc(Cl)cc(NC(=O)OCc3ccccc3)c2)n1 | > 99.5 µM | > 100 µM |
| NCc1cc(Cl)cc(C(=O)Nc2cccc(C3CCNCC3)c2)c1 | > 99.5 µM | > 100 µM |
| NCCCCc1ccc(NC(=O)c2cc(Cl)cc3[nH]ncc23)cc1 | > 99.5 µM | > 100 µM |
| Cc1c(C(=O)Nc2cccc([C@@H](C)N)c2)cc(C2CC2)n1C | > 99.5 µM | > 100 µM |
| C=CC[C@H]1NCc2cc(NC(=O)c3cccc4c3CC(=O)N4)ccc21 | > 99.5 µM | > 100 µM |
| O=C(O)c1cc2cc(-c3cc(Cl)cc4ncccc34)ccc2[nH]1 | 41.5 µM | 50.9 µM |
| CC(=O)Nc1cccc(C(=O)Nc2ccc3c(c2)CNC3)n1 | > 99.5 µM | > 100 µM |
| N#C[C@H](Nc1ccc2c(c1)CNC2)c1cc(Cl)cc2[nH]ncc12 | > 99.5 µM | > 100 µM |
| O=C(Nc1cc(Cl)cc(C(=O)Nc2ccc([C@@H]3C[C@H]3C(=O)O)cc2)c1)OCc1ccccc1 | 19.5 µM | 9.55 µM and 9.43 µM |
| N[C@H]1CC[C@H](c2ccc(NC(=O)c3cc(Cl)cc(NC(=O)OCc4ccccc4)c3)cc2)C1 | 10.2 µM and 8.32 µM and 13 µM | 84.2 µM |
| Cc1ncc(Br)cc1C(=O)Nc1ccc2c(c1)CNC2 | > 99.5 µM | > 100 µM |
| CS(=O)(=O)Nc1ccc(Cl)cc1C(=O)Nc1cccc(CN)c1 | > 99.5 µM | > 100 µM |
| CC(C)NC(=O)[C@H](Nc1ccc2c(c1)CNC2)c1cc(F)cc2[nH]ccc12 | > 99.5 µM | > 100 µM |
| O=C(Nc1cc([C@H]2CCOC2)ccn1)c1cc(F)cc2[nH]ncc12 | > 99.5 µM | > 100 µM |
| O=C1OCc2ccc(NC(=O)c3cc(Cl)cc4[nH]ncc34)cc21 | > 99.5 µM | > 100 µM |
